Here are results for 15 compounds from ChEMBL document CHEMBL1136607, “Novel thrombin inhibitors incorporating non-basic partially saturated heterobicyclic P1-arginine mimetics” (Bioorg Med Chem Lett, 2003).

One experiment addresses Prothrombin (Homo sapiens, UniProt P00734). Description: In vitro inhibitory activity against Thrombin.
Another experiment addresses Serine protease 1 (Homo sapiens, UniProt P07477). Description: In vitro inhibitory activity against Trypsin.
Another experiment has as its target Coagulation factor X (Homo sapiens, UniProt P00742). The experiment is described as follows: In vitro inhibitory activity against Factor Xa.
Experiment [1] has as its target Thrombin & trypsin (Homo sapiens) (UniProt P00734+P07477+P07478+P35030). The experiment is described as follows: Selectivity ratio of thrombin to trypsin. Format: protein assay.
For experiment [2], the species on record is Homo sapiens. The experiment is described as follows: Concentration required to double the activated partial thromboplastin time in human plasma (APTT). Format: functional, cell-free.
Experiment [3] is filed under the species Homo sapiens. Description: Concentration required to double the thrombin time in human plasma (TT). Format: functional, cell-free.
The species entered for experiment [4] is Homo sapiens. The experiment is described as follows: Concentration required to double the […] prothrombin time in human plasma (PT). Format: functional, cell-free.

Coagulation factor X, sequence (P00742 41-179 limits assumed): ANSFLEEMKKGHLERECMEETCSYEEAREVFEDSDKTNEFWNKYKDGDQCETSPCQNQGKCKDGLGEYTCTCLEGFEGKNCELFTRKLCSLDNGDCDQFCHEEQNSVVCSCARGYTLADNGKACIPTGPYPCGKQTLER
Coagulation factor X, sequence (P00742 235-488 limits assumed): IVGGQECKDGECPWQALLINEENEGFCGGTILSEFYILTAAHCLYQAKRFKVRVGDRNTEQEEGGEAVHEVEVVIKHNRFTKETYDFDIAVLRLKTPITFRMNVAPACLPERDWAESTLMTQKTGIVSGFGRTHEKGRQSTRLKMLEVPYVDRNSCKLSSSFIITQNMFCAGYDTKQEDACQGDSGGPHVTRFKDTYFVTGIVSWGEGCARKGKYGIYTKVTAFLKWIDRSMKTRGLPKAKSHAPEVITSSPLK
Serine protease 1, sequence (P07477 whole entry): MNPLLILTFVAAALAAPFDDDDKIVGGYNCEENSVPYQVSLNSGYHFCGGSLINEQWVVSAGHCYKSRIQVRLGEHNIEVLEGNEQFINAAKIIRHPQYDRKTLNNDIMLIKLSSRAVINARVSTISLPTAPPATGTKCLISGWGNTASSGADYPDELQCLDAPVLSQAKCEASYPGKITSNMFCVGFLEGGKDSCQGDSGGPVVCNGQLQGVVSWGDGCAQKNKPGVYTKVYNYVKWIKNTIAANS

For the compound `CC(C)(C)OC(=O)N[C@H](Cc1ccc(Cl)c(Cl)c1)C(=O)N1CCC[C@H]1C(=O)NCC1CCc2nc(N)ncc2C1` (stereo partly drawn), the Ki was > 35.1 µM at Prothrombin, > 68.3 µM at Serine protease 1 and > 75.4 µM on Coagulation factor X.
In the case of `Nc1ncc2c(n1)CCC(NC(=O)[C@@H]1CCCN1C(=O)[C@@H](CC1CCCCC1)NS(=O)(=O)Cc1ccccc1)C2` (stereo partly drawn), the Ki at Prothrombin is > 35.1 µM; at Serine protease 1, > 68.3 µM; on Coagulation factor X it was > 75.4 µM.
Take `O=C(NCC1CCc2ncncc2C1)[C@@H]1CCCN1C(=O)[C@@H](CC1CCCCC1)NS(=O)(=O)Cc1ccccc1` (stereo partly drawn): the Ki on Serine protease 1 came out at 342 µM; at Coagulation factor X, 111 µM.
As for `O=C(NC1CCc2n[nH]cc2C1)[C@@H]1CCCN1C(=O)[C@@H](CC1CCCCC1)NS(=O)(=O)Cc1ccccc1` (stereo partly drawn), the Ki was 5.38 µM on Prothrombin, > 68.3 µM on Serine protease 1 and > 75.4 µM on Coagulation factor X. In addition, the Ratio in experiment [1] is > 13.
As for `CC(C)(C)OC(=O)N[C@H](Cc1ccc(Cl)c(Cl)c1)C(=O)N1CCC[C@H]1C(=O)NCC1CCc2n[nH]cc2C1` (stereo partly drawn), the values for the Ki on Prothrombin, on Serine protease 1 and on Coagulation factor X were 3.33 µM, > 68.3 µM and > 75.4 µM, respectively. In experiment [1], the Ratio was > 21.
Regarding `N[C@H](Cc1ccc(Cl)c(Cl)c1)C(=O)N1CCC[C@H]1C(=O)NCC1CCc2n[nH]cc2C1` (stereo partly drawn), the Ki was 0.69 µM on Prothrombin, > 68.3 µM on Serine protease 1 and > 75.4 µM at Coagulation factor X. The Ratio in experiment [1] was > 99.
As for `N[C@@H](C(=O)N1CCC[C@H]1C(=O)NCC1CCc2n[nH]cc2C1)C(c1ccccc1)c1ccccc1` (stereo partly drawn), the Ki amounted to 217 µM at Serine protease 1 and 82.1 µM on Coagulation factor X.
`CC(C)(C)OC(=O)N[C@@H](C(=O)N1CCC[C@H]1C(=O)NCC1CCc2n[nH]cc2C1)C(c1ccccc1)c1ccccc1` (stereo partly drawn): the Concentration in the experiment filed under Homo sapiens [2] was 81 µM; in the experiment filed under Homo sapiens [3], 29.2 µM; in the experiment listed under Homo sapiens [4], 105 µM. For the same compound, the Ki was 0.53 µM on Prothrombin and 85.2 µM on Coagulation factor X.
Take `Nc1ncc2c(n1)CCC(CNC(=O)[C@@H]1CCCN1C(=O)[C@@H](CC1CCCCC1)NS(=O)(=O)Cc1ccccc1)C2` (stereo partly drawn): the Ki at Prothrombin is > 35.1 µM; at Serine protease 1 it was > 68.3 µM; at Coagulation factor X, > 75.4 µM.
Consider `O=C(NC1CCc2c[nH]cc2C1)[C@@H]1CCCN1C(=O)[C@@H](CC1CCCCC1)NS(=O)(=O)Cc1ccccc1` (stereo partly drawn), for which the Ki on Prothrombin worked out at 27.3 µM; on Serine protease 1 it was 416 µM. Also, the Ratio in experiment [1] is 15.
For the compound `Cn1cc2c(n1)CCC(NC(=O)[C@@H]1CCCN1C(=O)[C@@H](CC1CCCCC1)NS(=O)(=O)Cc1ccccc1)C2` (stereo partly drawn), on Serine protease 1, the Ki was found to be 730 µM.
Regarding `Nc1ncc2c(n1)CCC(CNC(=O)[C@@H]1CCCN1C(=O)[C@H](N)C(c1ccccc1)c1ccccc1)C2` (stereo partly drawn), the Ki on Prothrombin worked out at 12.9 µM; at Serine protease 1, 409 µM; at Coagulation factor X it was 57.6 µM. Also, the Ratio in experiment [1] came out at 32.
In the case of `Nc1ncc2c(n1)CCC(CNC(=O)[C@@H]1CCCN1C(=O)[C@H](N)Cc1ccc(Cl)c(Cl)c1)C2` (stereo partly drawn), the Ki at Prothrombin is > 35.1 µM; at Serine protease 1, > 68.3 µM; at Coagulation factor X, > 75.4 µM.
Consider `O=C(O)CN[C@H](CC1CCCCC1)C(=O)N1CCC[C@H]1C(=O)NCC1CCc2n[nH]cc2C1` (stereo partly drawn), for which the values for the Concentration in the experiment listed under Homo sapiens [2], in the experiment filed under Homo sapiens [3] and in the experiment listed under Homo sapiens [4] were 28 µM, 4.9 µM and 55.3 µM, respectively. The values for the Ki at Serine protease 1 and at Coagulation factor X were 19.9 µM and 84.8 µM, respectively. The Ratio in experiment [1] was 71.
For `O=C(NCC1CCc2n[nH]cc2C1)[C@@H]1CCCN1C(=O)[C@@H](CC1CCCCC1)NS(=O)(=O)Cc1ccccc1` (stereo partly drawn), the results for the Concentration in the experiment listed under Homo sapiens [2], in the experiment filed under Homo sapiens [3] and in the experiment listed under Homo sapiens [4] were 42.3 µM, 11 µM and 78.3 µM, respectively. The Ki at Serine protease 1 was > 68.3 µM; at Coagulation factor X, > 75.4 µM. The Ratio in experiment [1] is > 478.
